Experimental data as given in patent publication US20250163104A1, “MACROCYCLIC IMMUNOMODULATORS” (priority 2021, published 2025).
Where a SMILES comes first, the peptide text is derived from it. Bridges are numbered along the chain shown (N, C = ends). [ ]: non-standard residue; d: D form. The star is where a group is joined. ξ: configuration not given here. Bip = N[C@@H](Cc1ccc(-c2ccccc2)cc1)C(=O)O; Phe(3-F) = N[C@@H](Cc1cccc(F)c1)C(=O)O; 4Pal = N[C@@H](Cc1ccncc1)C(=O)O; Cha = N[C@@H](CC1CCCCC1)C(=O)O; Cit = NC(=O)NCCC[C@H](N)C(=O)O; Carboxymethyl = O=C(O)C*; Orn = NCCC[C@H](N)C(=O)O; Dab = NCC[C@H](N)C(=O)O; Dap = NC[C@H](N)C(=O)O; ξPra = C#CCC(N)C(=O)O

Target: T1, human PD-1 / PD-L1-Ig binding on Jurkat cell line over-expressing human PD-1 (Jurkat-PD-1) (Homo sapiens, UniProt Q15116)
T1 construct: expressed in transfected cells; host or cells: Jurkat
Test: Jurkat-PD-1 Cell Binding High-Content Screening Assay (CBA)
Format: cell-based
Details: Jurkat-PD-1 cells, PE-labeled PD-L1-Ig 20 nM final; read-out: Jurkat HPD1_PDL1 IC50
Method in brief: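 PE-PD-L1-Ig 20 nM final; cells in DMEM/10% FCS; cpd pre-incubation 2 h, 37° C; ligand 1 h; PFA fix + Hoechst 33342; high-content imaging read-out.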

T1 sequence (Q15116 25-288): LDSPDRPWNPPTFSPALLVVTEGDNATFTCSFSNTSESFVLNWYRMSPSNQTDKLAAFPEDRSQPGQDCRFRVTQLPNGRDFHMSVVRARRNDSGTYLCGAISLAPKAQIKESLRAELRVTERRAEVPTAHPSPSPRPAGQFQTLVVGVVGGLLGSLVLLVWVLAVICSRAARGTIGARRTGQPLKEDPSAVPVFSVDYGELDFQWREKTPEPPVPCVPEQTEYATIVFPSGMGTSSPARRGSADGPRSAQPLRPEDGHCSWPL

Structure (SMILES)	IC50 [nM]
CC(C)C[C@H]1NC(=O)[C@H](CCCN)NC(=O)[C@H](CCC(=O)O)NC(=O)[C@H](Cc2ccc(-c3ccccc3)cc2)NC(=O)[C@H](C(C)C)NC(=O)[C@H](Cc2c[nH]c3ccccc23)NC(=O)[C@H](CC(=O)O)NC(=O)[C@H](Cc2ccc(OCC(=O)O)cc2)NC(=O)[C@H](CN)NC(=O)CSC[C@@H](C(=O)N[C@@H](C)C(N)=O)NC(=O)[C@H]([C@@H](C)O)NC(=O)[C@H](C(C)C)NC(=O)[C@H](Cc2ccccc2)NC(=O)[C@H](CCN)NC1=O [Compound 1666] ({CH2CO}-[Dap]Y(Carboxymethyl)DWV[Bip]E[Orn][dL][Dab]FVTCA-NH2; thioether N-14)	17.3
CC(C)C[C@H]1NC(=O)[C@H](CCCN)NC(=O)[C@H](CCCNC(N)=O)NC(=O)[C@H](Cc2ccc(-c3ccccc3)cc2)NC(=O)[C@H](C(C)C)NC(=O)[C@H](Cc2c[nH]c3ccccc23)NC(=O)[C@H](CC(=O)O)NC(=O)[C@H](Cc2ccc(OCC(=O)O)cc2)NC(=O)[C@H](Cc2ccc(OCC(=O)O)cc2)NC(=O)CSC[C@@H](C(=O)N[C@@H](C)C(N)=O)NC(=O)[C@H]([C@@H](C)O)NC(=O)[C@H](C(C)C)NC(=O)[C@H](Cc2cccc(F)c2)NC(=O)[C@H](CCN)NC1=O [Compound 1676] ({CH2CO}-Y(Carboxymethyl)Y(Carboxymethyl)DWV[Bip][Cit][Orn][dL][Dab][Phe(3-F)]VTCA-NH2; thioether N-14)	22.2
CCC(C)[C@@H]1NC(=O)[C@H](Cc2ccc(-c3ccccc3)cc2)NC(=O)[C@H](C(C)C)NC(=O)[C@H](Cc2c[nH]c3ccccc23)NC(=O)[C@H](CC(=O)O)NC(=O)[C@H](Cc2ccc(-c3cccc(C(=O)O)c3)cc2)NC(=O)[C@H](Cc2ccc(OCC(=O)O)cc2)NC(=O)CSC[C@@H](C(=O)N[C@@H](C)C(N)=O)NC(=O)[C@H]([C@@H](C)O)NC(=O)[C@H](C(C)C)NC(=O)[C@H](CC2CCCCC2)NC(=O)[C@H](CCN)NC(=O)[C@@H](CC(C)C)NC(=O)[C@H](CCCN)NC1=O (stereo partly drawn) [Compound 2220]	34.6
C#CCC(NC(=O)[C@H](CCCN)NC(=O)[C@@H]1CSCC(=O)N[C@@H](Cc2ccncc2)C(=O)N[C@@H](Cc2ccc(OCC(=O)O)cc2)C(=O)N[C@@H](CC(=O)O)C(=O)N[C@@H](Cc2c[nH]c3ccccc23)C(=O)N[C@@H](C(C)C)C(=O)N[C@@H](Cc2ccc(-c3ccccc3)cc2)C(=O)N[C@@H]([C@@H](C)CC)C(=O)N[C@@H](CCCN)C(=O)N[C@H](CC(C)C)C(=O)N[C@@H](CCN)C(=O)N[C@@H](CC(C)C)C(=O)N[C@@H](C(C)C)C(=O)N[C@@H]([C@@H](C)O)C(=O)N1)C(N)=O (stereo partly drawn) [Compound 1760] ({CH2CO}-[4Pal]Y(Carboxymethyl)DWV[Bip]I[Orn][dL][Dab]LVTC[Orn][ξPra]-NH2; thioether N-14)	39.6
CCCC[C@H]1NC(=O)[C@H](CCCN)NC(=O)[C@H](CCC(=O)O)NC(=O)[C@H](Cc2ccc(-c3ccccc3)cc2)NC(=O)[C@H](C(C)C)NC(=O)[C@H](Cc2c[nH]c3ccccc23)NC(=O)[C@H](CC(=O)O)NC(=O)[C@H](Cc2ccc(OCC(=O)O)cc2)NC(=O)[C@H](CN)NC(=O)CSC[C@@H](C(=O)N[C@@H](C)C(N)=O)NC(=O)[C@H]([C@@H](C)O)NC(=O)[C@H](C(C)C)NC(=O)[C@H](CC2CCCCC2)NC(=O)[C@H](CCN)NC1=O [Compound 1454]	11.9
CC(C)C[C@H]1NC(=O)[C@H](CCCN)NC(=O)[C@H](CCC(=O)O)NC(=O)[C@H](Cc2ccc(-c3ccccc3)cc2)NC(=O)[C@H](C(C)C)NC(=O)[C@H](Cc2c[nH]c3ccccc23)NC(=O)[C@H](CC(=O)O)NC(=O)[C@H](Cc2ccncc2)NC(=O)[C@H](Cc2ccccc2)NC(=O)CSC[C@@H](C(=O)N[C@@H](C)C(N)=O)NC(=O)[C@H]([C@@H](C)O)NC(=O)[C@H](C(C)C)NC(=O)[C@H](CC2CCCCC2)NC(=O)[C@H](CCN)NC1=O [Compound 2196] ({CH2CO}-F[4Pal]DWV[Bip]E[Orn][dL][Dab][Cha]VTCA-NH2; thioether N-14)	11.6
